Data set [1] deals with Cholinesterase (Mus musculus, UniProt Q03311).
Description: Inhibition of BuChE in Swiss mouse serum using butyrylthiocholine iodide as substrate incubated for 10 mins followed by substrate addition and measured after 10 mins
Data set [2] addresses T1, Acetylcholinesterase (Mus musculus, UniProt P21836).
T1 sequence (P21836 whole entry): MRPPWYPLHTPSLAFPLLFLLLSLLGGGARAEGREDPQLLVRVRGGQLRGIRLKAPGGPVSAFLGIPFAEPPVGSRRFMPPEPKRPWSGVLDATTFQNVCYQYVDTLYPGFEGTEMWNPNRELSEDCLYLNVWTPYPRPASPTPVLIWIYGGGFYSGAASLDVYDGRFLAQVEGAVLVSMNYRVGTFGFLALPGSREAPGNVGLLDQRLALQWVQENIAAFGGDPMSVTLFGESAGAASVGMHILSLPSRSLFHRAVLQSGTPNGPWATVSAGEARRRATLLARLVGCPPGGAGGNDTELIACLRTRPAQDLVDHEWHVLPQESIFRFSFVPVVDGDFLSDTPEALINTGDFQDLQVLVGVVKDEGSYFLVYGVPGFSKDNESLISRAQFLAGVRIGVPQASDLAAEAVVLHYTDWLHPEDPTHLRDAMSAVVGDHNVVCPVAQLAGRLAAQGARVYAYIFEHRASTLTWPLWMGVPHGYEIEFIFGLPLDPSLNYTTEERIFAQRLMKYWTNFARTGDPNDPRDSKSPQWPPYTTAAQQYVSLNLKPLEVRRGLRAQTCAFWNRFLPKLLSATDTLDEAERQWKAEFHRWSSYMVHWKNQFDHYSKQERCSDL
Kind of data set: Inhibition of AChE in Swiss mouse brain using acetylthiocholine iodide as substrate incubated for 10 mins followed by substrate addition and measured after 10 mins. The format is tissue-based.

Data set [3] in a line: in vitro. Conditions: PAMPA.
Description: Fraction absorbed of the compound by PAMPA
Data set [4] deals with Vero. Kind of data set: cells. Conditions: Chlorocebus sabaeus, 24 h.
Description: Cytotoxicity against monkey Vero cells assessed as reduction in cell viability incubated for 24 hrs by MTT assay
For data set [5], the system named is HepG2. Kind of data set: cells. Conditions: Homo sapiens, HepG2, 24 h.
Description: Cytotoxicity against human HepG2 cells assessed as reduction in cell viability incubated for 24 hrs by MTT assay
The subject of data set [6] is C6. Kind of data set: cells. Conditions: Rattus norvegicus, C6, 24 h.
Description: Cytotoxicity against rat C6 cells assessed as reduction in cell viability incubated for 24 hrs by MTT assay
A short description of data set [7]: Selectivity index, ratio of IC50 for rat C6 cells to IC50 for inhibition of BuChE in Swiss mouse serum.
Data set [8] is described as follows: Selectivity index, ratio of IC50 for monkey Vero cells to IC50 for inhibition of BuChE in Swiss mouse serum.
Data set [9] can be described thus: Selectivity index, ratio of IC50 for human HepG2 cells to IC50 for inhibition of BuChE in Swiss mouse serum.
Data set [10] is described as follows: Selectivity index, ratio of IC50 for monkey Vero cells to IC50 for inhibition of AChE in Swiss mouse brain.
A short description of data set [11]: Selectivity index, ratio of IC50 for human HepG2 cells to IC50 for inhibition of AChE in Swiss mouse brain.
Data set [12] is described as follows: in vitro. Conditions: PAMPA. This is another data set of the same source. (In general: In PAMPA a lipid-coated filter parts donor from acceptor wells.)
Description: Effective permeability of compound incubated for 8 hrs by PAMPA
Data set [13] can be described thus: Selectivity index, ratio of IC50 for rat C6 cells to IC50 for inhibition of AChE in Swiss mouse brain.

These results are taken from ChEMBL document CHEMBL4373684, “Synthesis of new lophine-carbohydrate hybrids as cholinesterase inhibitors: cytotoxicity evaluation and molecular modeling” (Medchemcomm, 2019).

The IC50 is the concentration at which inhibition is half-maximal. As usually defined, the Papp is the rate of passage across a membrane or cell layer, normalised by area and donor concentration.

Cholinesterase, sequence (Q03311 whole entry): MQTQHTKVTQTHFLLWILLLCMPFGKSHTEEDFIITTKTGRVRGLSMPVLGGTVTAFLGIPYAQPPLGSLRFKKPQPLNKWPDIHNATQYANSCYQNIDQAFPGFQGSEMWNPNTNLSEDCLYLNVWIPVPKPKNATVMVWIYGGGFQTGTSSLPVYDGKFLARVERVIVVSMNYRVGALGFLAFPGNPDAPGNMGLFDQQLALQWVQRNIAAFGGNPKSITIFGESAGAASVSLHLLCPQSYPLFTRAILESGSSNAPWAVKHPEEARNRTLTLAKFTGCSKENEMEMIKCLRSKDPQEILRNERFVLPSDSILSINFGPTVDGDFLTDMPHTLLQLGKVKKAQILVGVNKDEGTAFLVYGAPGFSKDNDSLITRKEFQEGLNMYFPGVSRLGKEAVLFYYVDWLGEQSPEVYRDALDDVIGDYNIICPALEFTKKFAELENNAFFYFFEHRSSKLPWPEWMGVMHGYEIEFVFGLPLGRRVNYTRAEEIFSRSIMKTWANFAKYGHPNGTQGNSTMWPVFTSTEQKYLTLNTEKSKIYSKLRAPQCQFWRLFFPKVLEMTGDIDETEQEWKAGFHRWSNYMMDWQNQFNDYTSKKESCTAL

Turning to `CO[C@@H]1O[C@H](CNCCCCCCn2c(-c3ccccc3)nc(-c3ccccc3)c2-c2ccccc2)[C@H]2OC(C)(C)O[C@@H]12`, the half-maximal inhibitory concentration (IC50) in data set [1] is 0.4 µM; in [2], greater than 10 µM.
For the compound `CC1(C)O[C@H]2O[C@H](CNCCCCCCCCn3c(-c4ccccc4)nc(-c4ccccc4)c3-c3ccccc3)[C@H](O)[C@H]2O1`, the IC50 in data set [1] was 1.3 µM; in data set [2] it was greater than 10 µM.
In turn, `CC(C)NCC(O)COc1ccc(CC(N)=O)cc1` (centres undefined) [ATENOLOL] registered a Fa in data set [3] of 100%.
For `CC1(C)O[C@H]2O[C@H](CNCCCCn3c(-c4ccccc4)nc(-c4ccccc4)c3-c3ccccc3)[C@H](O)[C@H]2O1`, the IC50 in data set [1] was 0.3 µM; in data set [2], greater than 10 µM.
As to `CNC(=C[N+](=O)[O-])NCCSCc1ccc(CN(C)C)o1` [RANITIDINE], the Fa in [3] was 87.3%.
As to `CC1(C)O[C@H]2O[C@H](CNCCCCCn3c(-c4ccccc4)nc(-c4ccccc4)c3-c3ccccc3)[C@H](O)[C@H]2O1`, the IC50 in data set [4] is 115 µM; in [1], 0.28 µM; in data set [5] it was 116 µM; in [6] it was greater than 250 µM; in data set [2], greater than 10 µM.
With `CC1(C)O[C@H]2[C@@H](O1)[C@@H](CNCCCCCCCn1c(-c3ccccc3)nc(-c3ccccc3)c1-c1ccccc1)O[C@@H]1OC(C)(C)O[C@@H]12`, the IC50 in data set [1] is 0.62 µM; in [2], greater than 10 µM. Besides, the “Ratio IC50” value in [7], in data set [8] and in data set [9] was 1400 in each case.
With `CO[C@@H]1O[C@H](CNCCCCCCCn2c(-c3ccccc3)nc(-c3ccccc3)c2-c2ccccc2)[C@H]2OC(C)(C)O[C@@H]12`, the “Ratio IC50” value came out at 90 in data set [10]; 500 in data set [7]; 90 in data set [11]; 500 in data set [8]; 90 in data set [13]; 500 in data set [9]. For the same compound, the IC50 in data set [4] is greater than 250 µM; in [1] it was 0.5 µM; in [5] it was greater than 250 µM; in data set [6], greater than 250 µM; in [2], 2.75 µM. This compound came in with a Fa in [3] of 20.4%. Moreover, the Papp at 8 h in data set [12] came to 2.28 ×10⁻⁶ cm/s.
As to `c1ccc(-c2nc(-c3ccccc3)c(-c3ccccc3)[nH]2)cc1`, the IC50 in data set [1] and in data set [2] was greater than 10 µM each time.
For `CC1(C)O[C@H]2O[C@H](CNCCCCCCCn3c(-c4ccccc4)nc(-c4ccccc4)c3-c3ccccc3)[C@H](O)[C@H]2O1`, the figures for the IC50 in data set [1] and in data set [2] were 0.4 µM and greater than 10 µM, respectively.
In turn, `O=c1ccc2ccccc2o1` [COUMARIN] showed a Fa in data set [3] of 87.9%. Also, the Papp at 8 h in [12] was determined as 26.2 ×10⁻⁶ cm/s.
Consider `CC1(C)O[C@H]2O[C@H](CNCCCCCCn3c(-c4ccccc4)nc(-c4ccccc4)c3-c3ccccc3)[C@H](O)[C@H]2O1`, for which the IC50 was 0.71 µM in [1] and greater than 10 µM in data set [2].
Consider `CCn1cc(C(=O)O)c(=O)c2cc(F)c(N3CCNCC3)cc21` [NORFLOXACIN], for which the Fa in data set [3] worked out at 23.5%.
As to `CC1(C)O[C@H]2[C@@H](O1)[C@@H](CNCCCCCCn1c(-c3ccccc3)nc(-c3ccccc3)c1-c1ccccc1)O[C@@H]1OC(C)(C)O[C@@H]12`, the IC50 is greater than 250 µM in data set [4]; 0.17 µM in [1]; greater than 250 µM in [5]; greater than 250 µM in [6]; greater than 10 µM in [2]. This compound registered a Fa in data set [3] of 5.9%. In data set [12], this compound had a Papp at 8 h of 0.54 ×10⁻⁶ cm/s.
As for `CO/N=C(\C(=O)N[C@@H]1C(=O)N2C(C(=O)O)=C(CSc3nc(=O)c(=O)[nH]n3C)CS[C@H]12)c1csc(N)n1` [CEFTRIAXONE], the Fa in [3] came to 99.2%. Also, the Papp at 8 h in data set [12] came out at 0.38 ×10⁻⁶ cm/s.
